# Results reported in patent US20230414573A1, “SYNERGISTIC OPHTHALMOLOGICAL COMPOSITION IN A LOW-CONCENTRATION DOSE THAT IS EFFECTIVE IN THE PREVENTION, CONTROL AND ERADICATION OF PRESBYOPIA” (priority 2020, published 2023).
# Where “and” joins values, the source holds several entries; their conditions need not be identical. Identical values can stand only once.
# Test system: eyes of patients with presbyopia
# Assay: Clinical trial: near vision on Rosenbaum chart with Jaeger notation
# Type: in vivo, human
# Details: one hour after instillation; for JAEGER- 2 (Jaeger scale, near vision): one drop, synergistic mixture in non-dominant eye, pilocarpine or brimonidine dilution in dominant eye, 11 patients, baseline 5.82; for WINNED LINES (lines gained in the reading primer with Jaeger's notation): synergistic combination in non-dominant eye, comparators in dominant eye
# Procedure: A composition was prepared where patients with presbyopia symptoms were selected. This study was approved by the ethics committee of Optall Vision Eye Center in Mexico City. All patients signed and gave their consent to participate in such study.
# For the study, patients with presbyopia, with a corrected visual acuity of 20/25 or better, were included. The diagnosis of presbyopia was determined without correcting near vision acuity was equal to or less than 3 on the Jaeger scale on the Rosenbaum chart improving at least 2 on the Jaeger scale with the use of at least +1.00 D. Age, gender, ocular dominance, uncorrected visual acuity (UCVA), corrected near visual acuity (BNCVA) intraocular pressure with Goldmann applanation tonometer (IOP), pupil diameter under photopic and scotopic conditions (PD), slit lamp biomicroscopic examination and a fundus examination were recorded.
# The ophthalmic composition comprised a single low concentration dose of pilocarpine, brimonidine, oxymetazoline/sodium hyaluronate, bromfenac and/or at least one vasoconstrictor and at least one pharmaceutically acceptable vehicle. From said combination, one drop of the synergistic mixture was applied and instilled in the nondominant eye and one drop of pilocarpine or brimonidine dilution was alternately instilled in the dominant eye of consecutive patients. After one hour, uncorrected visual acuity (UCVA), corrected visual acuity (BCVA), uncorrected near visual acuity (UNVA), corrected near visual acuity (BCNVA), intraocular pressure (IOP), pupil diameter (PD), visual analog pain scale (VAS) was measured from 0 to 10. Hyperemia was measured from 1 to 4.
# Statistical analyses were performed with SPSS using Pearson's and Spearman's correlation analysis.
# The type of modern Jaeger eye chart scale used generally ranges from J10 (approximately 14 points for Times New Roman typeface) to J1 (approximately 3 points, Times New Roman typeface). The chart moves back and forth until you can read a certain font size.
Structure (SMILES),"JAEGER- 2 (Jaeger scale, near vision)",WINNED LINES (lines gained in the reading primer with Jaeger's notation),WINNED LINES (lines gained in the reading primer with Jaeger's notation) (listed as brimonidine),"JAEGER- 2 (Jaeger scale, near vision) (listed as pilocarpine)",WINNED LINES (lines gained in the reading primer with Jaeger's notation) (listed as pilocarpine)
"Brc1c(NC2=NCCN2)ccc2nccnc12 [Brimonidine, brimonidine]",3.50±−1.761 and 3.5,2.33,2.33±−2.50,–,–
"CC[C@@H]1C(=O)OC[C@@H]1Cc1cncn1C [Pilocarpine, pilocarpine]",4.2,1.6,–,4.20±−1.483,1.60±−089
